According to patent US20250179059A1 (The Regents of the University of California, priority 2021, published 2025):
Read-outs that look alike come from different tables or passages of the source.

Columns and labels:
[1] = target: T1, human BRD4 bromodomain II (Homo sapiens, UniProt O60885); test: Bromodomain binding assay (AlphaScreen), BRD4 BDII
T1 construct: human BRD4 bromodomain II [based on Genbank NM_058243, residues 349-460]; host or cells: E. coli
Summary of the method: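 Inhibition of acetyl-H4 peptide binding to human BRD4 bromodomains is measured by bead-based proximity (AlphaScreen) in pH 7.5 HEPES buffer containing 0.05% CHAPS and 0.1% BSA. Ten compound concentrations in 3-fold steps give competitive binding IC50s.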

human BRD4 bromodomain I = target: T2, human BRD4 bromodomain I (Homo sapiens, UniProt O60885); test: Bromodomain binding assay (AlphaScreen), BRD4 BDI; conditions: Table C1
T2 construct: human BRD4 bromodomain I [residues 44-170]; host or cells: E. coli
Protocol: Bromodomain Binding Assay
The bromodomain binding assay utilizes AlphaScreen technology. Compounds compete with a biotinylated peptide ligand (from histone H4: aa 1-21, K5/K8/K12/K16Ac-biotin) for binding to a hexahistidine (His6)-tagged bromodomain. Peptide binding is detected by fluorescence signal after singlet oxygen energy transfer from peptide-bound AlphaScreen streptavidin-coated donor beads to His6-tagged bromodomain-bound nickel-chelate acceptor beads (PerkinElmer). Briefly, 8 μL 2.5× bromodomain (E. coli expressed, N-terminal His6-tagged human BRD4 bromodomain II [based on Genbank NM_058243, residues 349-460] or N-terminal His6-tagged human BRD4 bromodomain I [residues 44-170]) in reaction buffer (50 mM HEPES [pH 7.5], 100 mM NaCl, 0.05% CHAPS, 0.1% BSA, 1% DMSO) is added to wells of an assay plate (384-well low flange white, flat bottom, polystyrene microplate, Corning #3572; buffer only is added to some wells as a negative control). A compound concentration series (10 concentrations, 3-fold serial dilutions previously prepared in 100% DMSO, or 100% DMSO only negative control) is delivered to the assay plate with an Echo 550 acoustic liquid handler (Labcyte), followed by plate centrifugation and incubation for 30 minutes at room temperature. Then 4 μL 5× biotinylated peptide ligand is added, followed by plate centrifugation and gentle shaking for 30 minutes at room temperature to mix. After this incubation, 4 μL 5× donor beads are added, and the plate is centrifuged, followed by brief gentle shaking to mix. Finally, 4 μL 5× acceptor beads are added, and the plate is centrifuged, followed by gentle shaking for 60 minutes at room temperature in the dark. AlphaScreen signal (excitation/emission: 680 nm/520-620 nm) is detected with an EnSpire multimode plate reader (PerkinElmer). Percentage peptide binding is plotted as a function of concentration, and curve fitting is used to determine competitive compound binding ICsos.

[2] = system: human SKM-1 acute myeloid leukemia cells; test: SKM-1 antiproliferation cell-based assay (ATPlite); conditions: Homo sapiens
Summary of the method: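 Log-phase cells in RPMI 1640/15% FBS were seeded at 34722 cells/mL and exposed for 4 days to nine-concentration DMSO serial dilutions in triplicate. Viability was read as ATP luminescence (ATPlite 1step), and IC50 values came from variable-slope non-linear regression.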

[3] = AlphaScreen assay, Table C1, read-out: BRD4 BDII IC50
[4] = AlphaScreen assay, Table C2, read-out: BRD4 BDII IC50
[5] = SKM-1, 96 h, SKM-1 antiproliferation assay, 4 days, Table C2
[6] = BRD4 BDII AlphaScreen assay, read-out: BRD4 BD2 IC50
[7] = SKM-1, SKM-1 antiproliferation assay

| SMILES | IC50 [1, 3] [nM] | IC50 [1, 4] [nM] | IC50 (human BRD4 bromodomain I) [nM] | GI50 [2, 5] [nM] | IC50 [1, 6] [nM] | GI50 [2, 7] [nM] |
| --- | --- | --- | --- | --- | --- | --- |
| CC(=O)Nc1ccc(-c2cccc(-c3cc(N4CCN(C)CC4)no3)c2O)cc1 [Example 6, N-(2′-Hydroxy-3′-(3-(4-methylpiperazin-1-yl)isoxazol-5-yl)-[1,1′-biphenyl]-4-yl)acetamide] | 10 to 100 | 10 to 100 | > 100 |  |  |  |
| CN1CCN(c2ccc(-c3cccc(-c4ccnc(N5CCNCC5)c4)c3O)cc2Cl)C1=O [Example 245, 1-(3-Chloro-2′-hydroxy-3′-(2-(piperazin-1-yl)pyridin-4-yl)-[1,1′-biphenyl]-4-yl)-3-methylimidazolidin-2-one] | 1 to 10 | 1 to 10 | > 100 | 30 to 300 |  |  |
| CN1CCN(c2ccc(-c3cc(F)cc(-c4ccnc(N5CCNCC5)c4)c3O)cc2Cl)C1=O [Example 297, 1-(3-chloro-5′-fluoro-2′-hydroxy-3′-(2-(piperazin-1-yl)pyridin-4-yl)-[1,1′-biphenyl]-4-yl)-3-methylimidazolidin-2-one] | 1 to 10 | 1 to 10 | > 100 | 30 to 300 |  |  |
| Cn1ccn(-c2ccc(-c3cc(F)cc(-c4ccnc(N5CCNCC5)c4)c3O)cc2Cl)c1=O [Example 365, 1-(3-chloro-5′-fluoro-2′-hydroxy-3′-(2-(piperazin-1-yl)pyridin-4-yl)-[1,1′-biphenyl]-4-yl)-3-methyl-1H-imidazol-2(3H)-one] | 1 to 10 | 1 to 10 | > 100 | 0.3 to 30 |  |  |
| C[C@@H]1CN(c2cc(-c3cc(F)cc(-c4ccc(-n5ccn(C)c5=O)c(Cl)c4)c3O)ccn2)CCN1 [Example 413, (R)-1-(3-chloro-5′-fluoro-2′-hydroxy-3′-(2-(3-methylpiperazin-1-yl)pyridin-4-yl)-[1,1′-biphenyl]-4-yl)-3-methyl-1H-imidazol-2(3H)-one] | 0.01 to 1 | 0.01 to 1 | > 100 | 0.3 to 30 |  |  |
| CC(C)(C)N1CCN(c2cccc(-c3nccc(-c4ccc(-n5cc[nH]c5=O)c(Cl)c4)c3O)c2)CC1 [Example 1038, 1-(4-(2-(3-(4-(tert-butyl)piperazin-1-yl)phenyl)-3-hydroxypyridin-4-yl)-2-chlorophenyl)-1H-imidazol-2(3H)-one] |  |  |  |  | 10 to 100 | 30 to 300 |
| COc1ncc(-c2nc(C)cc(-c3ccc(-n4ccn(C)c4=O)c(Cl)c3)c2O)cc1N1CC2CCC(C1)N2C(C)C [Example 1039, 1-(2-chloro-4-(3-hydroxy-5′-(8-isopropyl-3,8-diazabicyclo[3.2.1]octan-3-yl)-6′-methoxy-6-methyl-[2,3′-bipyridin]-4-yl)phenyl)-3-methyl-1H-imidazol-2(3H)-one] |  |  |  |  | 1 to 10 | 0.3 to 30 |
| Cn1ccn(-c2ccc(-c3cc(=O)[nH]c(-c4cccc(N5CCN(C(C)(C)C)CC5)c4)c3O)cc2Cl)c1=O [Example 1040, 6-(3-(4-(tert-Butyl)piperazin-1-yl)phenyl)-4-(3-chloro-4-(3-methyl-2-oxo-2,3-dihydro-1H-imidazol-1-yl)phenyl)-5-hydroxypyridin-2(1H)-one] |  |  |  |  | 10 to 100 | 300 to 3000 |
| CN1CCN(c2ccc(-c3cc(F)cc(-c4ccc(OC5CCNCC5)nc4)c3O)cc2Cl)C1=O [compound 446, 1-(3-chloro-5′-fluoro-2′-hydroxy-3′-(6-(piperidin-4-yloxy)pyridin-3-yl)-[1,1′-biphenyl]-4-yl)-3-methylimidazolidin-2-one] |  | 10 to 100 |  | 300 to 3000 |  |  |

More lines, now with the values ahead:

| IC50 [1, 3] [nM] | IC50 [1, 4] [nM] | IC50 (human BRD4 bromodomain I) [nM] | GI50 [2, 5] [nM] | IC50 [1, 6] [nM] | GI50 [2, 7] [nM] | SMILES |
| --- | --- | --- | --- | --- | --- | --- |
| 10 to 100 | 10 to 100 | > 100 |  |  |  | CC(=O)Nc1ccc(-c2cccc(-c3cc(N4CCNCC4)no3)c2O)cc1 [Example 3, N-(2′-Hydroxy-3′-(3-(piperazin-1-yl)isoxazol-5-yl)-[1,1′-biphenyl]-4-yl)acetamide] |
| 10 to 100 | 10 to 100 | > 100 |  |  |  | CC(=O)Nc1ccc(-c2cccc(-c3cccc(N4CCOCC4)c3)c2O)cc1F [Example 95, N-(3-Fluoro-2′-hydroxy-3″-morpholino-[1,1′:3′,1″-terphenyl]-4-yl)acetamide] |
| 1 to 10 | 1 to 10 | > 100 | 300 to 3000 |  |  | CC(=O)Nc1ccc(-c2cccc(-c3cccc(N4CCNCC4)c3)c2O)cc1F [Example 109, N-(3-Fluoro-2′-hydroxy-3″-(piperazin-1-yl)-[1,1′:3′,1″-terphenyl]-4-yl)acetamide] |
| 1 to 10 | 1 to 10 | > 100 | 30 to 300 |  |  | CC(=O)Nc1ccc(-c2cccc(-c3ccnc(N4CCNCC4)c3)c2O)cc1F [Example 163, N-(3-fluoro-2′-hydroxy-3′-(2-(piperazin-1-yl)pyridin-4-yl)-[1,1′-biphenyl]-4-yl)acetamide] |
| 1 to 10 | 1 to 10 | > 100 |  |  |  | CC(=O)Nc1ccc(-c2cccc(-c3cccc(N4CCNCC4)c3)c2O)cc1Cl [Example 171, N-(3-chloro-2′-hydroxy-3″-(piperazin-1-yl)-[1,1′:3′,1″-terphenyl]-4-yl)acetamide] |
